# Results taken from EP0908457B1, “3-(1,2-benzisothiazol- and isoxazol-5-Y1)-2,4(1H,3H)-pyrimidinedione or thione and 3-(1,2-benzisothiazol- and isoxazol-5-y1)-4(3H)-pyrimidinone or thione herbicidal agents” (BASF AKTIENGESELLSCHAFT, priority 1997, dated 1999).
# How the values were obtained:
# Cyperus iria = test: Preemergence weed control under flooded paddy conditions, CYPIR (Rice Flatsedge); format: in vivo; settings: preemergence weeds, flooded paddy, rated three to four weeks after treatment; note: meaning of each grade not given here
# [1] = test system: Cyperus serotinus, Rottb.; test: Preemergence weed control under flooded paddy conditions, CYPSE (Flatsedge); format: in vivo; settings: preemergence weeds, rated three to four weeks after treatment; note: meaning of each grade not given here
# [2] = test system: Monochoria vaginalis, Presl.; test: Preemergence weed control under flooded paddy conditions, MOOVA (Monochoria); format: in vivo; settings: preemergence weeds, flooded paddy, rated three to four weeks after treatment; note: meaning of each grade not given here
# [3] = test system: Echinochloa oryzoides (Ard.) Fritsch.; test: Preemergence weed control under flooded paddy conditions, ECHORC (Watergrass (Calif.)); format: in vivo; settings: preemergence weeds, flooded paddy, rated three to four weeks after treatment; note: meaning of each grade not given here
# Sagittaria pygmaea, L. = test: Preemergence weed control under flooded paddy conditions, SAGPY (Arrowhead (Pygmaea)); format: in vivo; settings: preemergence weeds, flooded paddy, rated three to four weeks after treatment; note: meaning of each grade not given here
# [4] = test system: Oryza sativa, (L.) Tebonnet; test: Rice tolerance to post-transplant applications under flooded paddy conditions (Example 187), ORYSAT (Rice, Tebonnet); settings: rated three to four weeks after treatment
Compound,"herbicidal effect rating, CYPIR (Cyperus iria; 0.0313 kg/ha)","herbicidal effect rating, CYPIR (Cyperus iria; 0.0625 kg/ha)","herbicidal effect rating, CYPIR (Cyperus iria; 0.1250 kg/ha)","herbicidal effect rating, CYPIR (Cyperus iria; 0.2500 kg/ha)","herbicidal effect rating, CYPSE ([1]; 0.0313 kg/ha)","herbicidal effect rating, CYPSE ([1]; 0.0625 kg/ha)","herbicidal effect rating, CYPSE ([1]; 0.1250 kg/ha)","herbicidal effect rating, MOOVA ([2]; 0.0313 kg/ha)","herbicidal effect rating, MOOVA ([2]; 0.0625 kg/ha)","herbicidal effect rating, MOOVA ([2]; 0.1250 kg/ha)","herbicidal effect rating, MOOVA ([2]; 0.2500 kg/ha)","herbicidal effect rating, ECHORC ([3]; 0.0313 kg/ha)","herbicidal effect rating, ECHORC ([3]; 0.0625 kg/ha)","herbicidal effect rating, ECHORC ([3]; 0.1250 kg/ha)","herbicidal effect rating, ECHORC ([3]; 0.2500 kg/ha)","herbicidal effect rating, SAGPY (Sagittaria pygmaea, L.; 0.0313 kg/ha)","herbicidal effect rating, SAGPY (Sagittaria pygmaea, L.; 0.0625 kg/ha)","herbicidal effect rating, SAGPY (Sagittaria pygmaea, L.; 0.1250 kg/ha)","herbicidal effect rating, SAGPY (Sagittaria pygmaea, L.; 0.2500 kg/ha)","herbicidal effect rating, ORYSAT (rice tolerance) ([4]; 0.0313 kg/ha)",also measured
"C=CC(C)OC(=O)COc1ccc(C)cc1-c1nsc2ccc(-n3c(=O)cc(C(F)(F)F)n(C)c3=O)cc12 (centres unmarked) [Example 186, 1-Methylallyl {{2-{5-[3,6-dihydro-3-methyl-2,6-dioxo-4-(trifluoromethyl)-1(2H)-pyrimidinyl]-1,2-benzisothiazol-3-yl}-p-tolyl}oxy}acetate]",,,,,,,,,,,,,,,,,,,,,"herbicidal effect rating, CYPIR (Cyperus iria; 0.0315 kg/ha): 9.0; herbicidal effect rating, CYPIR (Cyperus iria; 0.0630 kg/ha): 9.0; herbicidal effect rating, CYPSE ([1]; 0.0315 kg/ha): 9.0; herbicidal effect rating, CYPSE ([1]; 0.0630 kg/ha): 9.0; herbicidal effect rating, MOOVA ([2]; 0.0315 kg/ha): 9.0; herbicidal effect rating, MOOVA ([2]; 0.0630 kg/ha): 9.0; herbicidal effect rating, ECHORC ([3]; 0.0315 kg/ha): 9.0; herbicidal effect rating, ECHORC ([3]; 0.0630 kg/ha): 9.0; herbicidal effect rating, SAGPY (Sagittaria pygmaea, L.; 0.0315 kg/ha): 9.0; herbicidal effect rating, SAGPY (Sagittaria pygmaea, L.; 0.0630 kg/ha): 9.0; herbicidal effect rating, ORYSAT (rice tolerance) ([4]; 0.0315 kg/ha): 9.0; herbicidal effect rating, ORYSAT (rice tolerance) ([4]; 0.0630 kg/ha): 9.0"
"CC(C)=CCOC(=O)COc1ccc(C)cc1-c1nsc2ccc(-n3c(=O)cc(C(F)(F)F)n(C)c3=O)cc12 [Example 187, 3-Methyl-2-butenyl {{2-{5-[3,6-dihydro-3-methyl-2,6-dioxo-4-(trifluoromethyl)-1(2H)-pyrimidinyl]-1,2-benzisothiazol-3-yl}-p-tolyl}oxy}acetate]",0.0,0.0,2.0,4.0,0.0,0.0,0.0,8.0,9.0,9.0,9.0,0.0,2.0,6.0,9.0,0.0,0.0,0.0,0.0,2.0,"herbicidal effect rating, CYPSE ([1]; 0.2500 kg/ha): 0.0; herbicidal effect rating, ORYSAT (rice tolerance) ([4]; 0.0625 kg/ha): 3.0; herbicidal effect rating, ORYSAT (rice tolerance) ([4]; 0.1250 kg/ha): 3.0; herbicidal effect rating, ORYSAT (rice tolerance) ([4]; 0.2500 kg/ha): 6.0"
"COCCOC(=O)COc1ccc(C)cc1-c1nsc2ccc(-n3c(=O)cc(C(F)(F)F)n(C)c3=O)cc12 [Example 191, 2-Methoxyethyl {{2-{5-[3,6-dihydro-3-methyl-2,6-dioxo-4-(trifluoromethyl)-1(2H)-pyrimidinyl]-1,2-benzisothiazol-3-yl}-p-tolyl}oxy}acetate]",0.0,0.0,2.0,4.0,0.0,0.0,0.0,9.0,9.0,9.0,9.0,0.0,2.0,4.0,7.0,0.0,0.0,0.0,0.0,1.0,"herbicidal effect rating, ORYSAT (rice tolerance) ([4]; 0.0625 kg/ha): 2.0; herbicidal effect rating, ORYSAT (rice tolerance) ([4]; 0.1250 kg/ha): 3.0; herbicidal effect rating, ORYSAT (rice tolerance) ([4]; 0.2500 kg/ha): 6.0"
"C#CCNC(=O)COc1ccc(C)cc1-c1noc2ccc(-n3c(=O)cc(C(F)(F)F)n(C)c3=O)cc12 [Example 193, 2-{{2-{5-[3,6-Dihydro-3-methyl-2,6-dioxo-4-(trifluoromethyl)-1(2H)-pyrimidinyl]-1,2-benzisoxazol-3-yl}-p-tolyl}oxy}-N-(2-propynyl)acetamide]",0.0,0.0,0.0,0.0,0.0,0.0,0.0,2.0,4.0,9.0,9.0,0.0,0.0,0.0,0.0,0.0,0.0,0.0,0.0,0.0,"herbicidal effect rating, CYPSE ([1]; 0.2500 kg/ha): 0.0; herbicidal effect rating, ORYSAT (rice tolerance) ([4]; 0.0625 kg/ha): 0.0; herbicidal effect rating, ORYSAT (rice tolerance) ([4]; 0.1250 kg/ha): 0.0; herbicidal effect rating, ORYSAT (rice tolerance) ([4]; 0.2500 kg/ha): 1.0"
